Experimental data reported in paper PMC11145868, “Protein target similarity is positive predictor of in vitro antipathogenic activity: a drug repurposing strategy for Plasmodium falciparum” (Journal of Cheminformatics, 2024).
Counter-ions that a name gives are not always drawn. Like-named read-outs stand apart in the source and are kept apart here.

Experiments:
[1] = test system: P. falciparum Dd2-HLH; assay: microbe, parasite or virus in culture; type: cell-based, Plasmodium falciparum; settings: read-out: Blood stage 72h EC50
[2] = in vitro; settings: human
[3] = test system: P. berghei-luciferase sporozoites; assay: microbe, parasite or virus in culture; type: cell-based, Plasmodium berghei; settings: liver-stage parasites, 48 hours in culture, read-out: Liver stage 48h EC50
[4] = in vitro; settings: human; remark: listed apart in the source
[5] = test system: P. falciparum Dd2-HLH; assay: microbe, parasite or virus in culture; type: cell-based, Plasmodium falciparum; settings: read-out: Blood stage 48h EC50
[6] = test system: HepG2 cells; assay: Mammalian cell cytotoxicity assay, HepG2 (CellTiter-Glo, 72 h); settings: read-out: HEP CC50
[7] = test system: HEK293T cells; assay: Mammalian cell cytotoxicity assay, HEK293T (CellTiter-Glo, 72 h); settings: read-out: HEK CC50
[8] = test system: PfPKG; settings: read-out: IC50 in PfPKG kinase assays; cited from earlier work
[9] = test system: P. falciparum blood-stage; parameters: method as in PMID 28874661; settings: read-out: EC50 against P. falciparum blood-stage growth in vitro; cited from earlier work
[10] = test system: P. falciparum (NF54 drug-sensitive strain); parameters: method as in PMID 28446690; settings: read-out: EC50 against intraerythrocytic lifecycle stages of P. falciparum; cited from earlier work
[11] = P. falciparum blood-stage parasites, 72 hours in culture
[12] = P. falciparum blood-stage parasites, 48 hours in culture

**Q.** Which EC50 ([1]; Plasmodium falciparum, DD2, 72 h) does the source give for `CCN(CCO)CCCOc1ccc2c(Nc3cc(CC(=O)Nc4cccc(F)c4)n[nH]3)ncnc2c1` [Barasertib-HQPA] here?
**A.** Its EC50 is 539 nM.

**Q.** What about the CC50 [2] of the same compound?
**A.** The CC50 was > 9950 nM.

**Q.** And the EC50 ([3]; Plasmodium berghei, HepG2)?
**A.** Its EC50 is 4620 nM.

**Q.** And the CC50 [4]?
**A.** The CC50 was > 9990 nM.

**Q.** What about the EC50 ([5]; Plasmodium falciparum, DD2, 48 h) of the same compound?
**A.** Its EC50 is 253 nM.

**Q.** Which results are given for `Oc1ccc(CCN2CCC(Nc3nc4ccccc4n3Cc3ccc(F)cc3)CC2)cc1` [Desmethylastemizole]?
**A.** EC50 [1, 11]: 47 nM; EC50 [3]: 70 nM; CC50 ([6]; HepG2 cytotoxicity): 58 nM; EC50 [5, 12]: 23 nM; CC50 ([7]; HEK293T cytotoxicity): 5920 nM

**Q.** With `Cc1cn2c(-c3ccnc(NCC4CC4)n3)c(-c3ccc(F)c(NS(C)(=O)=O)c3)nc2cc1CN(C)C` [ML10] as the compound, how does the IC50 [8] read?
**A.** Its IC50 is 0.16 nM.

**Q.** And the EC50 [9]?
**A.** The EC50 was 2.1 nM.

**Q.** With `CS(=O)(=O)c1ccc(-c2cnc(N)c(-c3ccc(C(F)(F)F)nc3)c2)cc1` [MMV390048] as the compound, how does the EC50 [10] read?
**A.** The EC50 was 28 nM.

**Q.** What does the source list for `O=C(CC1c2ccccc2C(=O)N1c1ccc2ccc(Cl)nc2n1)N1CCC2(CC1)OCCO2` (stereo not shown) [Pazinaclone]?
**A.** EC50 [1, 11]: 427 nM; EC50 [3]: > 10000 nM; CC50 ([6]; HepG2 cells): > 9950 nM; EC50 [5, 12]: 77 nM; CC50 ([7]; HEK293T cells): > 9950 nM

**Q.** With `CN(C)CCNc1nc2cc(O)ccc2c2c1C(=O)c1ccccc1-2` [TAS-103] as the compound, how does the EC50 [1, 11] read?
**A.** The EC50 was 756 nM.

**Q.** What about the EC50 [3] of the same compound?
**A.** Its EC50 is 1500 nM.

**Q.** What about the CC50 ([6]; HepG2 cytotoxicity) of the same compound?
**A.** Its CC50 is 766 nM.

**Q.** What about the EC50 [5, 12] of the same compound?
**A.** Its EC50 is 574 nM.

**Q.** What about the CC50 ([7]; HEK293T cytotoxicity) of the same compound?
**A.** The CC50 was 334 nM.

**Q.** Which EC50 [1, 11] does the source give for `Cc1cc(-c2cc(O)ccc2Cl)cc2nnc(Nc3ccc(OCCN4CCCC4)cc3)nc12` [TG 100572 (Hydrochloride)] here?
**A.** Its EC50 is 589 nM.

**Q.** And the EC50 [3]?
**A.** Its EC50 is 642 nM.

**Q.** And the CC50 ([6]; HepG2 cells)?
**A.** Its CC50 is 3440 nM.

**Q.** What about the EC50 [5, 12] of the same compound?
**A.** Its EC50 is 122 nM.

**Q.** What about the CC50 ([7]; HEK293T cells) of the same compound?
**A.** The CC50 was 1730 nM.
